Values joined by “and” are separate entries in the source; they are usually repeats but may differ in a detail not shown here. Equal values may be shown once. Read-outs that look alike come from different tables or passages of the source.
Legend:
U251MGn = test: Matrigel barrier migration assay, U251MGn; format: cell-based, human; design: dose or concentration left out as unconfirmed
Experimental: (§1) Two permanent human glioma cell lines (U87MG and U251MGn) and a well characterized low passage primary culture derived from a CB-positive glioblastoma (HF66) were used to assess the migratory behavior in the Matrigel barrier migration assay in the presence of graded concentrations of four compounds.
(§2) Using the Matrigel assay, Mu-Leu-HphVSPh, Mu-Tyr-HphVSPh, Mu-Phe-HphVSPh, and Mu-Tyr(I2)-HphVSPh (all at 10 mM) inhibited U251MGn by 67, 56, 29, & 20% respectively, while the U87MG cells were inhibited 53, 75, 63, & 56% respectively. The primary culture HF66 cells were inhibited only 10% by these compounds at the same concentration.

[1] = tested on: mouse malarial parasite Plasmodium vinckei; test: In vitro protease activity of malarial parasite, substrate Z-Phe-Arg-AMC; format: biochemical; settings: cells printed in nM; read-out: P. vinckei IC50 (murine)
Source text: (§3) The following table summarizes the comparative IC50 values for selected cysteine protease inhibitors against the human malarial parasite Plasmodium falciparum and the mouse malarial parasite Plasmodium vinckei. The substrate used to measure in vitro protease activity was Z-Phe-Arg-AMC.

[2] = tested on: human malarial parasite Plasmodium falciparum; test: as above; format: biochemical; settings: cells printed in nM; read-out: P. falciparum IC50 (human)
Source text: as §3

U87MG = test: Matrigel barrier migration assay, U87MG; format: cell-based, human; design: dose or concentration left out as unconfirmed
Experimental: as §1, §2

[3] = biological target: T1, Cathepsin B from human placenta (Homo sapiens, UniProt P07858); test: Inhibition of cathepsin B, Z-Arg-Arg-AMC fluorescence progress curves; format: biochemical; settings: for k/KI (kirr/KI): values without asterisk, 25° C., pH 6.2
T1 construct: Cathepsin B from human placenta, obtained from Sigma; purchased Sigma; host or cells: human placenta (tissue)
Summary of the method: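 Human placental enzyme (~10 nM) in 50 mM phosphate pH 6.2 with 2.5 mM DTT and 2.5 mM EDTA, 50 μM Z-Arg-Arg-AMC, inhibitors 30-0.001 μM, 25° C. AMC fluorescence (ex 380/em 460 nm) progress curves fitted for kobs; kobs/[I] reported, with kirr, KI and kirr/KI substrate-corrected for selected compounds.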

cruzain, from T. cruzi = cruzain, from T. cruzi (Trypanosoma cruzi, UniProt P25779); test: Inhibition of cruzain, as for cathepsin L; format: biochemical; settings: for k/KI (kirr/KI): values without asterisk
Sequence of cruzain, from T. cruzi (P25779 123-337 limits assumed): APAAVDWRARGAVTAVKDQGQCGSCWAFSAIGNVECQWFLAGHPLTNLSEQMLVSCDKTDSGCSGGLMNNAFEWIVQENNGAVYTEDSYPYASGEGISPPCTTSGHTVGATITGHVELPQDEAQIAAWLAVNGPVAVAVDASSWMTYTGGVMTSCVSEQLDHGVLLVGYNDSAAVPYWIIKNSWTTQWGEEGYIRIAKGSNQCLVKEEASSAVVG
Summary of the method: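 Run as for cathepsin L with 1 nM cruzain in 50 mM phosphate pH […], 2.5 mM DTT, 2.5 mM EDTA, 5 μM Z-Phe-Arg-AMC, at 25 °C, inhibitors 30-0.001 μM; fluorescence (ex 380/em 460 nm) followed continuously. kobs fitted from progress curves and kobs/[I] reported; selected compounds gave kirr, KI, kirr/KI, with KI corrected by (1+[S]/Km).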

[4] = tested on: Trypanosoma cruzi amastigote infected macrophages; test: In vitro antiprotozoal activity, Trypanosoma cruzi; format: cell-based; design: key to percentage inhibition, T. cruzi: the term "T" indicates the molecule to have displayed cytotoxicity
Experimental: (§4) In this table, the in vitro antiprotozoal activities of the indicated compounds were measured as percentage inhibition of Leishmania donovani amastigote infecteda mouse peritoneal macrophages, Trypanosoma cruzi amastigote infected macrophages, and Trypanosoma brucei extracellular bloodstream forms.

[5] = tested on: Leishmania donovani amastigote infected mouse peritoneal macrophages; test: In vitro antiprotozoal activity, Leishmania donovani; format: cell-based; design: key to percentage inhibition, L. donovani: the term "T" indicates the molecule to have displayed cytotoxicity
Experimental: as §4

[6] = biological target: T2, Cathepsin L from rat liver (Rattus norvegicus, UniProt P07154); test: Inhibition of cathepsin L, Z-Phe-Arg-AMC fluorescence progress curves; format: biochemical; settings: for Ki: corrected for substrate; for kobs /[I]* (approximate second-order inactivation constant): values marked *; for kobs /[I]* (approximate second-order inactivation constant) / k/KI (kirr/KI): 25° C., pH 6.2; for k/KI (kirr/KI): values without asterisk
T2 construct: Cathepsin L from rat liver; from tissue; host or cells: rat liver
T2 sequence (P07154 114-288 limits assumed): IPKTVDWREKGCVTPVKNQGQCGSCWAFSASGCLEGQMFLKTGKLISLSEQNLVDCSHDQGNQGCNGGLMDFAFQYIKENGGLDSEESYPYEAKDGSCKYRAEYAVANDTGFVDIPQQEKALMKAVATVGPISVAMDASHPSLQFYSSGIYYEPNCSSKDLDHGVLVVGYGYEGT
T2 sequence (P07154 291-334 limits assumed): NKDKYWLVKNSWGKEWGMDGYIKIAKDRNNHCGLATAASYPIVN
Summary of the method: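 Progress curves of AMC release (380/460 nm) over at least 3 inactivation half-times were fitted to kobs, reported as kobs/[I] or, via 1/[I] vs 1/kobs, kirr, KI (substrate-corrected) and kirr/KI.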

[7] = tested on: Trypanosoma brucei extracellular bloodstream forms; test: In vitro antiprotozoal activity, Trypanosoma brucei; format: cell-based
Experimental: as §4

Row | Compound | inhibition of U251MGn migration (U251MGn) [%] | IC50 [1] [nM] | IC50 [2] [nM] | inhibition of U87MG migration (U87MG) [%] | k/KI (kirr/KI) [3] | Ki (cruzain, from T. cruzi) [nM] | kirr (cruzain, from T. cruzi) [s⁻¹] | k/KI (kirr/KI) (cruzain, from T. cruzi) | percentage inhibition, T. cruzi ([4]; 3 uM) [%] | percentage inhibition, T. cruzi ([4]; 10 uM) [%] | percentage inhibition, T. cruzi ([4]; 30 uM) [%] | percentage inhibition, T. cruzi ([4]; 90 uM) | percentage inhibition, L. donovani ([5]; 3 uM) [%] | percentage inhibition, L. donovani ([5]; 10 uM) [%] | percentage inhibition, L. donovani ([5]; 30 uM) [%] | percentage inhibition, L. donovani ([5]; 90 uM) | kirr [6] [s⁻¹] | Ki [6] [nM] | kobs /[I]* (approximate second-order inactivation constant) [6] | k/KI (kirr/KI) [6] | also measured
1 | CC(C)C[C@H](NC(=O)N1CCOCC1)C(=O)N[C@H](/C=C/S(=O)(=O)c1ccccc1)CCc1ccccc1 [Mu-Leu-HphVSPh, (S)-(E)-3-(4-morpholinecarbonylleucyl)amino-5-phenyl-1-phenylsulfonyl-1-pentene] | 67 | 200 | 3 | 53 | 4250 M⁻¹ s⁻¹ | 520 | 0.11 | 213,000 M^-1 sec^-1 | 0 | 0 | 11.4 | T | 4.6 | 0 | 15.3 | T | 0.40 | 810 | 28,700 M^-1 sec^-1 | 490,000 M^-1 sec^-1 | percentage inhibition, T. brucei ([7]; 3 uM): 11.2%; percentage inhibition, T. brucei ([7]; 10 uM): 82.2%; percentage inhibition, T. brucei ([7]; 30 uM): 84.7%; percentage inhibition, T. brucei ([7]; 90 uM): 100%
2 | O=C(N[C@H](/C=C/S(=O)(=O)c1ccccc1)CCc1ccccc1)C(Cc1ccccc1)NC(=O)N1CCOCC1 (stereo partly drawn) [Mu-Phe-HphVSPh, (S)-(E)-3-(4-morpholinecarbonyl-phenylalanyl)amino-5-phenyl-1-phenylsulfonyl-1-pentene] | 29 | 50 | 80 | 63 | 16,400 M^-1 sec^-1 | 3200 | 0.43 | 134,000 M^-1 sec^-1 | 10 | 10 | 50.1 | T | 0 | 0 | 9.4 | T | 0.24 | 1000 | 260,000 M^-1 sec^-1 | 224,000 M^-1 sec^-1 | kirr [3]: 0.17 s⁻¹; Ki ([3]; corrected for substrate): 11 µM; kirr ([3]; listed as Mu-Phe-Hph-VSPh): 0.061 s⁻¹ and 0.12 s⁻¹; Ki ([6]; listed as Mu-Phe-Hph-VSPh): 1100 nM; kirr ([6]; listed as Mu-Phe-Hph-VSPh): 0.23 s⁻¹; k/KI (kirr/KI) ([6]; listed as Mu-Phe-Hph-VSPh): 201,000 M^-1 sec^-1; ED50, T. brucei [7]: 2.19 µM; percentage inhibition, T. brucei ([7]; 1 uM): 10.2%; percentage inhibition, T. brucei ([7]; 3 uM): 90.5%; percentage inhibition, T. brucei ([7]; 10 uM): 82.7%; percentage inhibition, T. brucei ([7]; 30 uM): 100%; percentage inhibition, T. brucei ([7]; 90 uM): 100%
